Measured values taken from BindingDB's records for PubMed 2385234 (Universit&Eacute, 1990).
“And” between values parts separate entries of the source, which are not always exact repeats. Equal entries are not always repeated.

How the values were obtained:
[1] = target: T1, Muscarinic acetylcholine receptor M4 (Mus musculus, UniProt P32211)
T1 sequence (P32211 whole entry): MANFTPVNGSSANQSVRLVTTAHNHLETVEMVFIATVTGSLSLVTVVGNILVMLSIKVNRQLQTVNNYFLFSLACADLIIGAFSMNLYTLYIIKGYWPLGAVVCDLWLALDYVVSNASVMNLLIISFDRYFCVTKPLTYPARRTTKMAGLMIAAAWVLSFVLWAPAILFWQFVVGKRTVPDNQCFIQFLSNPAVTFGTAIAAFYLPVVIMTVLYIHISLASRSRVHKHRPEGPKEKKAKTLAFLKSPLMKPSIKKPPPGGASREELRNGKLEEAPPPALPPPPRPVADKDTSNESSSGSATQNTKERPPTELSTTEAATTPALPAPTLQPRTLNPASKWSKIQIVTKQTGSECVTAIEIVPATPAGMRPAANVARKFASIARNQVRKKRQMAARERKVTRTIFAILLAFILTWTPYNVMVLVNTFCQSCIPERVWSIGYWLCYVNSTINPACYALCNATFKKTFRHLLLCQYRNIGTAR

[2] = target: T2, Muscarinic acetylcholine receptor M4 (Rattus norvegicus, UniProt P08485)
T2 sequence (P08485 whole entry): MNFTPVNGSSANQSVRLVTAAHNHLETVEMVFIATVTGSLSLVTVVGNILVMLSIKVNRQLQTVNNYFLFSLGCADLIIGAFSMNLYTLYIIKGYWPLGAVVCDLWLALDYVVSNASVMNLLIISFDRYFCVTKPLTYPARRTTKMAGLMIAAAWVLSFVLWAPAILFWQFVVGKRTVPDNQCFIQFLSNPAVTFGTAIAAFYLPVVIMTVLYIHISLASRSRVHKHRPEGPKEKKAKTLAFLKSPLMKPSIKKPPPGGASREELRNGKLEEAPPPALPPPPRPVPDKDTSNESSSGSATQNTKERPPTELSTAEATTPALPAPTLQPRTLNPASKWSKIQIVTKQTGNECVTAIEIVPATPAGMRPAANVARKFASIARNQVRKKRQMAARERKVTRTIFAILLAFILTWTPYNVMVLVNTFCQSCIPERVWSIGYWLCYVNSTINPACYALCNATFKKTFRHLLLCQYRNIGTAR

[3] = target: Muscarinic acetylcholine receptor M3 (Rattus norvegicus, UniProt P08483)
[4] = target: T3, Muscarinic acetylcholine receptor M2 (Rattus norvegicus, UniProt P10980)
T3 sequence (P10980 whole entry): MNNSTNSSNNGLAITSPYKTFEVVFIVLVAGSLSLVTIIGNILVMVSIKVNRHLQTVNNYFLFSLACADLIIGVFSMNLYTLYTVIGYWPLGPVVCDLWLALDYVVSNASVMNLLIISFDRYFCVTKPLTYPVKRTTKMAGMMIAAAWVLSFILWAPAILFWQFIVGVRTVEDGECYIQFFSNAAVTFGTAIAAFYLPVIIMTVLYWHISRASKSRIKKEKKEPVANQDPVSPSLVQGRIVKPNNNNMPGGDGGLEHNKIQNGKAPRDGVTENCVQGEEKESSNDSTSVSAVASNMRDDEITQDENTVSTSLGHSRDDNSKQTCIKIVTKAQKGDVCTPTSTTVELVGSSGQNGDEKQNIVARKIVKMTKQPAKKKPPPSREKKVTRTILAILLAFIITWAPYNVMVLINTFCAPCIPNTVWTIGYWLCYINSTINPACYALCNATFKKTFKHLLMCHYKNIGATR

Muscarinic acetylcholine receptor M3, sequence (P08483 whole entry): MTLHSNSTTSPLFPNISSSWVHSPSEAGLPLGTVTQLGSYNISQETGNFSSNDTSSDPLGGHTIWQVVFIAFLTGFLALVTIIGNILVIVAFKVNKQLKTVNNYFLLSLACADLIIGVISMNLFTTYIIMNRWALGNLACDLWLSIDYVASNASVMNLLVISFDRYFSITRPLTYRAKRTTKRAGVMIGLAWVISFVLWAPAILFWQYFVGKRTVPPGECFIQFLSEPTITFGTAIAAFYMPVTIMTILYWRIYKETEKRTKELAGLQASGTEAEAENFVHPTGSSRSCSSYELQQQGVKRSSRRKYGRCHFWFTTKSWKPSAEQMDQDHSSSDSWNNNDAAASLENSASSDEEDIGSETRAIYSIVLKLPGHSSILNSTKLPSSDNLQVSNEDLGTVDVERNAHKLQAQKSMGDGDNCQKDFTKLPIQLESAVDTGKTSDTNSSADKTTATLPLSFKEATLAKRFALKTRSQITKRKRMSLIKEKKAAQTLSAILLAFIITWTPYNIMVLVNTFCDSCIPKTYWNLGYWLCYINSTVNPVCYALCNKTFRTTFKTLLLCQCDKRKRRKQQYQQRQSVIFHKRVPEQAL

## CN1CCN(CC(=O)N2c3ccccc3C(=O)Nc3cccnc32)CC1 [11-[(4-methylpiperazin-1-yl)acetyl]-5,11-dihydro-6H-pyrido[2,3-b][1,4]benzodiazepin-6-one]
[1]
  Ki: 400 nM

## C[N+]1(C)CCC(OC(=O)C(c2ccccc2)c2ccccc2)CC1
[1]
  Ki: 5.6 nM
[2]
  Ki: 5.2 nM and 5.6 nM

## CCN(CC)CC1CCCCN1CC(=O)N1c2ccccc2C(=O)Nc2cccnc21 (configuration not stated) [(AF-DX 116) 11-[2-(2-Diethylaminomethyl-piperidin-1-yl)-acetyl]-5,11-dihydro-benzo[e]pyrido[3,2-b][1,4]diazepin-6-one]
[1]
  Ki: 1600 nM
[3]
  Ki: 4800 nM
[4]
  Ki: 74 nM
[2]
  Ki: 1700 nM and 1500 nM

## COc1ccccc1CNCCCCCCNCCCCCCCCNCCCCCCNCc1ccccc1OC [METHOCTRAMINE]
[1]
  Ki: 160 nM
[3]
  Ki: 3000 nM
[2]
  Ki: 130 nM and 100 nM

## O[Si](CCCN1CCCCC1)(c1ccccc1)C1CCCCC1 (configuration not stated) [HHSiD]
[1]
  Ki: 100 nM
[3]
  Ki: 50 nM
[2]
  Ki: 93 nM and 110 nM

## C[C@H]1OC(=O)C2C[C@H]3CCCC[C@@H]3[C@@H](/C=C/[C@@H]3CCC[C@H](C)N3C)C21 (some centres not stated) [HIMBACINE]
[1]
  Ki: 60 nM
[3]
  Ki: 900 nM
[4]
  Ki: 15 nM
[2]
  Ki: 46 nM and 50 nM
